Consider two compounds from patent US8809232B2, “Herbicidal compositions comprising 4-amino-3-chloro-5-fluoro-6-(4-chloro-2-fluoro-3-methoxyphenyl) pyridine-2-carboxylic acid or a derivative thereof and halosulfuron, pyrazosulfuron and esprocarb” (Dow Agrosciences LLC, priority 2012, dated 2014).

One test relates to BRAPP. In words: Post-emergence foliar-applied herbicidal mixtures, greenhouse, direct seeded rice weeds. The format is in vivo. The source says: (§1) Seeds or nutlets of the desired test plant species were planted in a soil matrix prepared by mixing a loam or sandy loam soil (e.g., 28.6 percent silt, 18.8 percent clay, and 52.6 percent sand, with a pH of about 5.8 and an organic matter content of about 1.8 percent) and calcareous grit in an 80 to 20 ratio. The soil matrix was contained in plastic pots with a volume of 1 quart and a surface area of 83.6 square centimeters (cm^2). When required to ensure good germination and healthy plants, a fungicide treatment and/or other chemical or physical treatment was applied. The plants were grown for 8-22 days in a greenhouse with an approximate 14 hr photoperiod which was maintained at about 29° C. during the day and 26° C. during the night. Nutrients (Peters Excel® 15-5-15 5-Ca 2-Mg and iron chelate) were applied in the irrigation solution as needed and water was added on a regular basis. Supplemental lighting was provided with overhead metal halide 1000-Watt lamps as necessary. The plants were employed for testing when they reached the first through fourth true leaf stage.
(§2) Treatments consisted of the acid or esters of 4-amino-3-chloro-5-fluoro-6-(4-chloro-2-fluoro-3-methoxy-phenyl)pyridine-2-carboxylic acid (Compound A), each formulated as an SC (suspension concentrate), and various herbicidal components alone and in combination. Forms of compound A were applied on an acid equivalent basis.
(§3) Other herbicidal components were applied on an active ingredient basis and included the acetolactate synthase (ALS)-inhibiting herbicides halosulfuron-methyl formulated as Permit® 75 WDG, pyrazosulfuron-ethyl formulated as Agreen® WG or Sirius® G, and the VLCFA inhibiting herbicide esprocarb (technical grade material).
(§4) Treatment requirements were calculated based upon the rates being tested, the concentration of active ingredient or acid equivalent in the formulation, and a 12 mL application volume at a rate of 187 L/ha.
(§5) For treatments comprised of formulated compounds, measured amounts of compounds were placed individually in 25 mL glass vials and diluted in a volume of 1.25% (v/v) Agri-Dex® crop oil concentrated to obtain 12× stock solutions. […] Application solutions were prepared by adding an appropriate amount of each stock solution (e.g., 1 mL) and diluted to the appropriate final concentrations with the addition of 10 mL of an aqueous mixture of 1.25% (v/v) crop oil concentrate so that the final spray solutions contained 1.25+/−0.05% (v/v) crop oil concentrate.
(§6) For treatments comprised of technical compounds, weighed amounts can be placed individually in 25 mL glass vials and dissolved in a volume of 97:3 v/v acetone/DMSO to obtain 12× stock solutions. […] Application solutions can be prepared by adding an appropriate amount of each stock solution (e.g., 1 mL) and diluted to the appropriate final concentrations with the addition of 10 mL of an aqueous mixture of 1.5% (v/v) crop oil concentrate so that the final spray solutions contain 1.25% (v/v) crop oil concentrate. When technical materials are used, the concentrated stock solutions can be added to the spray solutions so that the final acetone and DMSO concentrations of the application solutions are 16.2% and 0.5%, respectively.
(§7) For treatments comprised of formulated and technical compounds, weighed amounts of the technical materials were placed individually in 25 mL glass vials and dissolved in a volume of 97:3 v/v acetone/DMSO to obtain 12× stock solutions, and measured amounts of the formulated compounds were placed individually in 25 mL glass vials and diluted in a volume of 1.5% (v/v) crop oil concentrate or water to obtain 12× stock solutions. […] Application solutions were prepared by adding an appropriate amount of each stock solution (e.g., 1 mL) and diluted to the appropriate final concentrations with the addition of an appropriate amount of an aqueous mixture of 1.5% (v/v) crop oil concentrate so that the final spray solutions contained 1.25% (v/v) crop oil concentrate. […]

The next test concerns ECHCO. The description is as above. In kind it is in vivo, Echinochloa colona (L.) Link. As to conditions: 105 g ai/ha.
Description: as §1, with “stage. […]” for “stage.”
as §4
(§8) For treatments comprised of formulated compounds, measured amounts of compounds were placed individually in 25 mL glass vials and diluted in a volume of 1.25% (v/v) Agri-Dex® crop oil concentrated to obtain 12× stock solutions. […]
(§9) For treatments comprised of formulated and technical compounds, weighed amounts of the technical materials were placed individually in 25 mL glass vials and dissolved in a volume of 97:3 v/v acetone/DMSO to obtain 12× stock solutions, and measured amounts of the formulated compounds were placed individually in 25 mL glass vials and diluted in a volume of 1.5% (v/v) crop oil concentrate or water to obtain 12× stock solutions. […]

In another test the test system is CYPIR. Described as above. In kind it is in vivo, Cyperus iria L.
Description: as §1, §2, §3, §4, §8, §9

The subject of test [1] is SCPJU. The test is described as above. In kind it is in vivo, Schoenoplectus juncoides (Roxb.) Palla.
Description: as §1, with “stage. […]” for “stage.”
as §4, §8, §9

A further test concerns CYPRO. In words: In-water applied herbicidal mixtures, greenhouse, transplanted paddy rice weeds. The format is in vivo, Cyperus rotundus L. Here is the method: (§10) Weed seeds or nutlets of the desired test plant species were planted in puddled soil (mud) prepared by mixing a shredded, non-sterilized mineral soil (50.5 percent silt, 25.5 percent clay, and 24 percent sand, with a pH of about 7.6 and an organic matter content of about 2.9 percent) and water at a 1:1 volumetric ratio. The prepared mud was dispensed in 365 mL aliquots into 16-ounce (oz.) non-perforated plastic pots with a surface area of 86.59 square centimeters (cm^2) leaving a headspace of 3 centimeters (cm) in each pot Mud was allowed to dry overnight prior to planting or transplanting. Rice seeds were planted in Sun Gro MetroMix® 306 planting mixture, which typically has a pH of 6.0 to 6.8 and an organic matter content of about 30 percent, in plastic plug trays. Seedlings at the second or third leaf stage of growth were transplanted into 840 mL of mud contained in 32-oz. non-perforated plastic pots with a surface area of 86.59 cm^2 4 days prior to herbicide application. The paddy was created by filling the headspace of the pots with 2.5 to 3 cm of water. When required to ensure good germination and healthy plants, a fungicide treatment and/or other chemical or physical treatment was applied. The plants were grown for 4-22 days in a greenhouse with an approximate 14 hr photoperiod which was maintained at about 29′C during the day and 26° C. during the night. Nutrients were added as Osmocote® (19:6:12, N:P:K^+ minor nutrients) at 2 g per 16-oz. pot and 4 g per 32-oz. pot. Water was added on a regular basis to maintain the paddy flood, and supplemental lighting was provided with overhead metal halide 1000-Watt lamps as necessary. The plants were employed for testing when they reached the first through fourth true leaf stage.
(§11) Treatments consisted of the acid or esters of 4-amino-3-chloro-5-fluoro-6-(4-chloro-2-fluoro-3-methoxy-phenyl)pyridine-2-carboxylic acid (compound A) each formulated as an SC (suspension concentrate) and various herbicidal components alone and in combination. Forms of compound A were applied on an acid equivalent basis.
(§12) Other herbicidal components were applied on an active ingredient basis and included acetolactate synthase (ALS)-inhibiting herbicides formulated as Permit® 75 WDG, pyrazosulfuron-ethyl formulated as Agreen® WG or Sirius® G, and VLCFA inhibiting herbicide esprocarb (technical grade material).
(§13) Treatment requirements for each compound or herbicidal component were calculated based upon the rates being tested, the concentration of active ingredient or acid equivalent in the formulation, an application volume of 2 mL per component per pot, and an application area of 86.59 cm^2 per pot.
(§14) For formulated compounds, a measured amount was placed in an individual 100 or 200 mL glass vial and was dissolved in a volume of 1.25% (v/v) Agri-Dex® crop oil concentrate to obtain application solutions.
(§15) For technical grade compounds, a weighed amount was placed in an individual 100 to 200 mL glass vial and was dissolved in a volume of acetone to obtain concentrated stock solutions. […] The concentrated stock solutions obtained were diluted with an equivalent volume of an aqueous mixture containing 2.5% (v/v) crop oil concentrate so that the final application solutions contained 1.25% (v/v) crop oil concentrate.
(§16) Applications were made by injecting with a pipetter appropriate amounts of the application solutions, individually and sequentially, into the aqueous layer of the paddy. Control plants were treated in the same manner with the solvent blank. Applications were made so that all treated plant material received the same concentrations of acetone and crop oil concentrate.
(§17) The treated plants and control plants were placed in a greenhouse as described above and water was added as needed to maintain a paddy flood. […]

A further test has as its system FIMMI. Described as above. The format is in vivo, Fimbristylis miliacea (L.) Vahl. Here is the method:
as §10, §11, §12, §13, §14, §15
Applications were made by injecting with a pipetter appropriate amounts of the application solutions, individually and sequentially, into the aqueous layer of the paddy. […]

Test [2] relates to SCPJU. The description is as above. In kind it is in vivo, Schoenoplectus juncoides (Roxb.) Palla. Here is the method: as §10
Treatments consisted of the acid or esters of 4-amino-3-chloro-5-fluoro-6-(4-chloro-2-fluoro-3-methoxy-phenyl)pyridine-2-carboxylic acid (compound A) each formulated as an SC (suspension concentrate) and various herbicidal components alone and in combination. Forms of compound A were applied on an acid equivalent basis. […]
as §13
For formulated compounds, a measured amount was placed in an individual 100 or 200 mL glass vial and was dissolved in a volume of 1.25% (v/v) Agri-Dex® crop oil concentrate to obtain application solutions. […]

The subject of another test is DIGSA. Briefly: Post-emergence foliar-applied herbicidal mixtures, greenhouse, direct seeded rice weeds. In kind it is in vivo, Digitaria sanguinalis (L.) Scop. As to conditions: 17.5 g ae/ha.
Description: as §1, §2, §3, §4, §5, §6, §7

Another test concerns LEFCH. Described as above. The format is in vivo, Leptochloa chinensis (L.) Nees. The conditions noted are these: 35 g ae/ha.
Description: as §1, §2, §3, §4, §5, §6, §7

The subject of another test is ECHOR. Briefly: In-water applied herbicidal mixtures, greenhouse, transplanted paddy rice weeds. The format is in vivo, Echinochloa oryzoides (Ard.) Fritsch. The method, then:
as §10, §11, §12, §13, §14, §15, §16, §17

A further test deals with SCPMA. The description is as above. The format is in vivo. Here is the method: as §10, §11, §12, §13, §14, §15, §16, §17

In the case of `CCN(C(=O)SCc1ccccc1)C(C)C(C)C` (stereo not drawn) [Esprocarb, S-(phenylmethyl) N-(1,2-dimethylpropyl)-N-ethylcarbamothioate], the “Visual Weed Control (%) - 22 DAA BRAPP Obs” value in the test on BRAPP (52.5 g ai/ha) and with BRAPP (105 g ai/ha) was 0% each time. Moreover, the “Visual Weed Control (%) - 22 DAA ECHCO Obs” value in the test with ECHCO worked out at 0%. For the same compound, the “Visual Weed Control (%) - 22 DAA CYPIR Obs” value in the test on CYPIR (52.5 g ai/ha) and with CYPIR (105 g ai/ha) was 0% each time. For the same compound, the “Visual Weed Control (%) - 22 DAA SCPJU Obs” value in the test on SCPJU [1] (52.5 g ai/ha) and with SCPJU [1] (105 g ai/ha) was 0% throughout. For the same compound, the “Visual Weed Control (%) - 21 DAA CYPRO Obs” value stood at 0% in the test on CYPRO (105 g ai/ha) and 50% in the test with CYPRO (210 g ai/ha). For the same compound, the “Visual Weed Control (%) - 21 DAA FIMMI Obs” value with FIMMI (105 g ai/ha) and with FIMMI (210 g ai/ha) was 0% throughout. Besides, the “Visual Weed Control (%) - 21 DAA SCPJU Obs” value in the test on SCPJU [2] (105 g ai/ha) and in the test on SCPJU [2] (210 g ai/ha) was 0% throughout.
Turning to `CCCCOC(=O)c1nc(-c2ccc(Cl)c(OC)c2F)c(F)c(N)c1Cl` [Compound A n-Butyl Ester], in the test with DIGSA, the “Visual Weed Control (%) - 20 DAA DIGSA Obs” value is listed as 13%. Also, the “Visual Weed Control (%) - 20 DAA LEFCH Obs” value in the test with LEFCH is 48%. Moreover, the “Visual Weed Control (%) - 20 DAA ECHOR Obs” value in the test with ECHOR (35 g ae/ha) is 35%; in the test on ECHOR (70 g ae/ha) it was 40%. For the same compound, the “Visual Weed Control (%) - 20 DAA SCPMA Obs” value in the test with SCPMA (35 g ae/ha) and in the test on SCPMA (70 g ae/ha) was 0% each time.
